Experimental data: patent US12630498B2 (Genzyme Corporation, priority 2019, dated 2026)

How the values were obtained:
[1] = target: T1, human Cystic Fibrosis Transmembrane Conductance Regulator (CFTR) harboring the ΔF508 mutation (Homo sapiens, UniProt P13569, DEL508-508); test: H441 cell ΔF508-CFTR-HRP cell surface assay (Emax and EC50); format: cell-based; settings: for Emax: NCI-H441, NA = Not active
T1 construct: expressed in transfected cells; host or cells: H441 carcinoma line (G418-selected)
Method in brief: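 H441 and 41o- bronchial epithelial cells expressing ΔF508-CFTR with an extracellular-loop-4 HRP tag were treated with a 15-point compound series (24.5–0.001 μM) for two nights, H441 at 27° C, 41o- at 37° C with 0.0005 mg/ml doxycycline. Surface HRP luminescence read; % of maximum VX809 signal and EC50 derived.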

[2] = target: T2, CFTR-mediated transepithelial chloride transport in primary human bronchial epithelial cells from a ΔF508 homozygous CF donor (Homo sapiens, UniProt P13569, DEL508-508); test: TECC24 recording of CFTR-mediated transepithelial chloride transport in CF-HBE cells (AUC fold over DMSO); format: cell-based; settings: test agent 10 μM, 48 hours incubation, AUC of forskolin-stimulated IEQ relative to DMSO
T2 construct: Primary human bronchial epithelial cells from a ΔF508 homozygous CF donor; host or cells: primary CF-HBE cells, ΔF508 homozygous donor
Description: Example 316: TECC24 AUC Fold Over DMSO @ 10 uM
The effects of a test agent on CFTR-mediated transepithelial chloride transport was measured using TECC24 recording analysis. Test agents were solubilized in DMSO. Solubilized test agents were mixed with incubation medium containing DMEM/F12, Ultroser G (2%; Crescent Chemical, catalog #67042), Hyclone Fetal Clone II (2%; GE Healthcare, catalog #SH30066.02), bovine brain extract (0.25%; Lonza, catalog #CC-4098), insulin (2.5 μg/mL), IL-13 (10 ng/mL), hydrocortisone (20 nM), transferrin (2.5 μg/mL), triiodothyronine (500 nM), ethanolamine (250 nM), epinephrine (1.5 μM), phosphoethanolamine (250 nM), and retinoic acid (10 nM). Primary human bronchial epithelial cells from a ΔF508 homozygous CF donor (CF-HBE cells; from University of North Carolina Cystic Fibrosis Tissue Procurement Center), grown on Transwell HTS 24-well cell culture inserts (Costar, catalog #3378), were exposed to test agents or controls dissolved in incubation medium. The CF-HBE cells were cultured at 36.5° C. for 48 hours before TECC24 recordings were performed in the presence or absence of test agent, a positive control or vehicle (DMSO).
Following incubation, the transwell cell culture inserts containing the test agent or control-treated CF-HBE cells were loaded onto a TECC24 apparatus (TECC v7 or MTECC v2; EP Design) to record the transepithelial voltage (VT) and resistance (TEER) using 4 AgCl electrodes per well configured in current-clamp mode. The apical and basolateral bath solutions both contained (in mM) 140 NaCl, 5 KCl, 2 CaCl2), 1 MgCl2, 10 Hepes, and 10 glucose (adjusted to pH 7.4 with NaOH). To inhibit basal Na+ absorption, the ENaC inhibitor benzamil (10 μM) was added to the bath. Then, the adenylate cyclase activator, forskolin (10 μM), was added to the bath to activate CFTR. The forskolin-stimulated Cl-transport was halted by addition of CFTR inhibitor-172 (20 μM) to the bath at the end of the experiment to confirm specificity. VT and TEER recordings were digitally acquired at routine intervals using TECC or MTECC software (EP Design). VT and TEER were transformed into equivalent transepithelial Cl-current (IEQ), and the Area Under the Curve (AUC) of the IEQ time course between forskolin and CFTR inhibitor-172 addition was generated using Excel (Microsoft). Efficacy is expressed as the ratio of the test agent AUC divided by vehicle AUC. EC50s based on AUC are generated using the non-linear regression log(agonist) vs. response function in Prism software (GraphPad) with Hill Slope fixed=1.
If a test agent increased the AUC of the forskolin-stimulated IEQ relative to vehicle in CF-HBE cells, and this increase was inhibited by CFTR inhibitor-172, then the test agent was considered a CFTR corrector.

T1 sequence (P13569 with tags, fused parts or gaps DEL508-508): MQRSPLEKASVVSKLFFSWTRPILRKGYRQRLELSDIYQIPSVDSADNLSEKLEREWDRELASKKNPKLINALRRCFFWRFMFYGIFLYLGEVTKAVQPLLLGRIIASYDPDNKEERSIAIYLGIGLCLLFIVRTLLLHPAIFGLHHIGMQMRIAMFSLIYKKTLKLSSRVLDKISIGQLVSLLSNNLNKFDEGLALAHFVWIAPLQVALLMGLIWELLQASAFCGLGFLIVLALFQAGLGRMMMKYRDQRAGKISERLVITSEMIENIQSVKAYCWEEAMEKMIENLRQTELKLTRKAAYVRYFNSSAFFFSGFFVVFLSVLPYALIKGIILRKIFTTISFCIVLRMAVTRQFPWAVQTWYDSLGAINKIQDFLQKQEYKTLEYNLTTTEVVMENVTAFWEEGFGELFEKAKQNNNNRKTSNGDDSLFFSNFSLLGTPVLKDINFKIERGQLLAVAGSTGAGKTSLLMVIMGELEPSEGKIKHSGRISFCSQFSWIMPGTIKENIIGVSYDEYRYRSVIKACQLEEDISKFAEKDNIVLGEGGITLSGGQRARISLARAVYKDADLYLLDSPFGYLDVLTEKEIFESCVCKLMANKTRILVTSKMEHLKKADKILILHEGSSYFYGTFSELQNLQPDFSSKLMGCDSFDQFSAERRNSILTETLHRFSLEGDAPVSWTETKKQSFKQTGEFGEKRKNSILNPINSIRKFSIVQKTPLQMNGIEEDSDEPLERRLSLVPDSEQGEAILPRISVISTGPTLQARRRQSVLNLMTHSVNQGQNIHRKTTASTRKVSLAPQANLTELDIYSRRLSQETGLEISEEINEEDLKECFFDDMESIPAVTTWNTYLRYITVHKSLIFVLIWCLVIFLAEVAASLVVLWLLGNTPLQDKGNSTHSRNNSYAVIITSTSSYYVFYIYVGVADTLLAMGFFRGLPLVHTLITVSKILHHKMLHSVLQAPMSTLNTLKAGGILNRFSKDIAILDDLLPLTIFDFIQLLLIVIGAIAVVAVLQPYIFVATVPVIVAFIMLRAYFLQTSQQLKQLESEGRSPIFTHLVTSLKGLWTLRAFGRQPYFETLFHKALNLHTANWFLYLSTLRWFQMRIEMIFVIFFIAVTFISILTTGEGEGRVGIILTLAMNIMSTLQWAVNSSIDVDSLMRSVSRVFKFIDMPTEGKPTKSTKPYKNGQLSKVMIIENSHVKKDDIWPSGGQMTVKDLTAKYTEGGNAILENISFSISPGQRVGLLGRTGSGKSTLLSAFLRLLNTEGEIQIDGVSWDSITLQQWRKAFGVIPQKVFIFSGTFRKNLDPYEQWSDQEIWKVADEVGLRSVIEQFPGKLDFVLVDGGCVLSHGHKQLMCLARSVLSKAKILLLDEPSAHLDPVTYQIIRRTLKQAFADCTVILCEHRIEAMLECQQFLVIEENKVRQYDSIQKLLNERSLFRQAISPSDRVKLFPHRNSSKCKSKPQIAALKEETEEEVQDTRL
T2 sequence (P13569 with tags, fused parts or gaps DEL508-508): as above

SMILES	EC50 [1]	Emax [1]	TECC24 AUC fold over DMSO @10 μM [2]
O=C(N[C@@H](Cc1ccc(C(F)(F)F)cc1)C(=O)O)c1ccc2cc(F)ccc2c1OCc1ccc(C(F)(F)F)cc1 [Example 197, (S)-2-(6-fluoro-1-((4-(trifluoromethyl)benzyl)oxy)-2-naphthamido)-3-(4-(trifluoromethyl)phenyl)propanoic Acid]	11500 nM	80.8%	B (“B” refers to AUC @10 uM between 4-6)
O=C(N[C@H](C(=O)O)C(c1ccccc1)c1ccccc1)c1ccc2ccccc2c1OCc1ccc(OC(F)(F)F)cc1 [Example 189, (S)-3,3-diphenyl-2-(1-((4-(trifluoromethoxy)benzyl)oxy)-2-naphthamido)propanoic Acid]	2400 nM	14.3%	C (“C” refers to AUC @10 uM <4)
O=C(N[C@@H](Cc1ccc2c(c1)OCO2)C(=O)O)c1ccc2ccccc2c1OCc1ccc(C(F)(F)F)cc1 [Example 106, (S)-3-(benzo[d][1,3]dioxol-5-yl)-2-(1-((4-(trifluoromethyl)benzyl)oxy)-2-naphthamido)propanoic Acid]	10400 nM	82.1%	C (“C” refers to AUC @10 uM <4)
CC(C)(C)[C@H](NC(=O)c1ccc2cc(F)ccc2c1OCc1ccc(OC(F)(F)F)cc1)C(=O)O [Example 19, (S)-2-(6-fluoro-1-((4-(trifluoromethoxy)benzyl)oxy)-2-naphthamido)-3,3-dimethylbutanoic Acid]	21900 nM	48.3%	C (“C” refers to AUC @10 uM <4)
Cc1ccc2c(OCc3ccc(C(F)(F)F)cc3)c(C(=O)N[C@H](C(=O)O)C(C)(C)C)ccc2c1 [Example 233, (2S)-3,3-dimethyl-2-[[6-methyl-1-[[4-(trifluoromethyl)phenyl]methoxy]naphthalene-2-carbonyl]amino]butanoic Acid]	12200 nM	156%	A (“A” refers to AUC @10 uM >6)

Now those with a lower EC50 [1], led by results:

EC50 [1]	Emax [1]	TECC24 AUC fold over DMSO @10 μM [2]	SMILES
1200 nM	125%	A (“A” refers to AUC @10 uM >6)	CC(C)(C)[C@H](NC(=O)c1ccc2c(F)cccc2c1OCc1ccc(OC(F)(F)F)cc1)C(=O)O [Example 221, (2S)-2-[[5-fluoro-1-[[4-(trifluoromethoxy)phenyl]methoxy]naphthalene-2-carbonyl]amino]-3,3-dimethyl-butanoic Acid]
100 nM	442%	A (“A” refers to AUC @10 uM >6)	CCCC(C)(C)[C@H](NC(=O)c1ccc2ccc(C(F)F)cc2c1OCc1ccc(C(F)(F)F)cc1)C(=O)O [Example 246, (2S)-2-[[7-(difluoromethyl)-1-[[4-(trifluoromethyl)phenyl]methoxy]naphthalene-2-carbonyl]amino]-3,3-dimethylhexanoic Acid]
500 nM	408%	A (“A” refers to AUC @10 uM >6)	COc1ccc2ccc(C(=O)N[C@H](C(=O)O)C(C)(C)C)c(OCc3ccc(C(F)(F)F)cc3)c2c1 [Example 308, (S)-2-(7-methoxy-1-((4-(trifluoromethyl)benzyl)oxy)-2-naphthamido)-3,3-dimethylbutanoic Acid]
1800 nM	94.7%	C (“C” refers to AUC @10 uM <4)	CC(C)(C)[C@H](NC(=O)c1ccc2cc(F)ccc2c1OCC1CCCCC1)C(=O)O [Example 45, (S)-2-(1-(cyclohexylmethoxy)-6-fluoro-2-naphthamido)-3,3-dimethylbutanoic Acid]
2000 nM	215%	A (“A” refers to AUC @10 uM >6)	C#CC(C)(C)C(NC(=O)c1ccc2ccccc2c1OCc1ccc(C(F)(F)F)cc1)C(=O)O (stereo not drawn) [Example 228, 3,3-dimethyl-2-[[1-[[4-(trifluoromethyl)phenyl]methoxy]naphthalene-2-carbonyl]amino]pent-4-ynoic Acid]
